Laboratory results published in patent US20250320206A1, “STAT6 DEGRADERS” (Gilead Sciences, Inc., priority 2024, published 2025).

Legend:
[1] = test system: Eotaxin-3 release in human whole blood stimulated with IL-4; experiment: Human Whole Blood Eotaxin-3 Assay (IL-4 stimulated eotaxin-3 release); assay type: cell-based; conditions: IL-4 stimulation, 48 h, values given for compounds with >80% Emax, geometric mean
Method in brief: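 Lithium-heparin human whole blood preincubated 2 h at 37° C with 4-fold serially diluted compounds (0.5% DMSO), then stimulated with recombinant human IL-4 ([…]) for 48 h. Eotaxin-3 (CCL26) in supernatant quantified by MSD immunoassay.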

STAT6 = biological target: T1, STAT6 (Homo sapiens, UniProt P42226); experiment: Stat6 Degrader Assay (HiBiT based, HeLa LgBiT clone 4.14); assay type: cell-based; conditions: HeLa LgBiT clone 4.14 HiBiT-STAT6, 4-24 h incubation; values given for compounds with >80% Emax; geometric mean; read-out: STAT6 degradation DC50
T1 construct: These cells express endogenous STAT6; host or cells: HeLa LgBiT clone 4.14
T1 sequence (P42226 1-847): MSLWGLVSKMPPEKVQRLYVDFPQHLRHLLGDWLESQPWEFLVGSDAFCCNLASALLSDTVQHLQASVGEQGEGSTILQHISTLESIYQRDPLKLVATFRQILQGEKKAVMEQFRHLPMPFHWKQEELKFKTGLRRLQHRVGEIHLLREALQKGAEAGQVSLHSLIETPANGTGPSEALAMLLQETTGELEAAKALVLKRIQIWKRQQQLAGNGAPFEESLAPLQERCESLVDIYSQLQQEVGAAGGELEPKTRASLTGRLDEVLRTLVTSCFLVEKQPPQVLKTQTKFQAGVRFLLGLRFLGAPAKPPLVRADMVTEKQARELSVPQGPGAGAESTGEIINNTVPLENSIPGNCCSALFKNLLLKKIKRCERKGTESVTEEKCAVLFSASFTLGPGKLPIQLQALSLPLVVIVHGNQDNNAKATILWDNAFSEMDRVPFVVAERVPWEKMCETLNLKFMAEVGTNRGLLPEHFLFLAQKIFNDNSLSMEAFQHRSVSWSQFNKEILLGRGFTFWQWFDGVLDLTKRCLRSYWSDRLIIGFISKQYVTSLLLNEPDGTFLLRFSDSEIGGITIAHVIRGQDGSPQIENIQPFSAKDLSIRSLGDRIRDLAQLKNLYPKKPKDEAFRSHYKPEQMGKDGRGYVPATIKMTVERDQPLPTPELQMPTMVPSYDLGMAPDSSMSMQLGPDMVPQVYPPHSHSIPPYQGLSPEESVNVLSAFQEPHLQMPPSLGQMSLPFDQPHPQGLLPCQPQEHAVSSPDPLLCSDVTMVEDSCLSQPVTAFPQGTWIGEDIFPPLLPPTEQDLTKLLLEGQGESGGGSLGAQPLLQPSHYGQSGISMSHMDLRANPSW
Method in brief: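 HeLa LgBiT clone 4.14 cells with CRISPR HiBiT-tagged endogenous STAT6, 5000 cells/well, compound dosed then incubated 4-24 h at 37° C, 5% CO2. Nano-Glo substrate added, 0.5 h, luminescence read as non-degraded STAT6. Terfenadine 50 μM (cell kill) defines 100% degradation.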

CNc1ccn(-c2ccnc3c2cc(CN2CCC(c4c(F)cc(C(=O)N5CCC(CN6CCN(Cc7cc8c(cc7F)N(C7CCC(=O)NC7=O)C(=O)C87CC7)CC6)CC5)cc4F)CC2)n3C)c(=O)c1 (centres unmarked) [Example 3u42, 3-(5′-((4-((1-(3,5-difluoro-4-(1-((1-methyl-4-(4-(methylamino)-2-oxopyridin-1 (2H)-yl)-1H-pyrrolo[2,3-b]pyridin-2-yl)methyl)piperidin-4-yl)benzoyl)piperidin-4-yl)methyl)piperazin-1-yl)methyl)-6′-fluoro-2′-oxospiro[cyclopropane-1,3′-indolin]-1′-yl)piperidine-2,6-dione]
EC50 [1]: 13.8 nM
DC50 (STAT6): 13.2 nM

C[C@H]1CN(Cc2ccc3c(c2)C(C)(C)C(=O)N3C2CCC(=O)NC2=O)CCN1CC1CCN(C(=O)c2ccc(C3CCN([C@@H](C)c4cc5c(-n6ccc7c(c6=O)CCN7)ccnc5n4C)CC3)cc2)CC1 (stereo partly drawn) [Example 3u184, 3-(3,3-dimethyl-5-(((S)-3-methyl-4-((1-(4-(1-((S)-1-(1-methyl-4-(4-oxo-1,2,3,4-tetrahydro-5H-pyrrolo[3,2-c]pyridin-5-yl)-1H-pyrrolo[2,3-b]pyridin-2-yl)ethyl)piperidin-4-yl)benzoyl)-piperidin-4-yl)methyl)piperazin-1-yl)methyl)-2-oxoindolin-1-yl)piperidine-2,6-dione]
EC50 [1]: 7 nM
DC50 (STAT6): 2.4 nM

CNc1cc(=O)n(-c2ccnc3c2cc([C@H](C)N2CC=C(c4c(C)cc(C(=O)N(C)c5ccc(C6CCN(Cc7ccc8c(c7)C7(CC7)C(=O)N8C7CCC(=O)NC7=O)CC6)cc5)cc4F)CC2)n3C)cc1F (stereo partly drawn) [Example 3u236, N-(4-(1-((1′-(2,6-dioxopiperidin-3-yl)-2′-oxospiro[cyclopropane-1,3′-indolin]-5′-yl)methyl)piperidin-4-yl)phenyl)-3-fluoro-4-(1-((S)-1-(4-(5-fluoro-4-(methylamino)-2-oxopyridin-1 (2H)-yl)-1-methyl-1H-pyrrolo[2,3-b]pyridin-2-yl)ethyl)-1,2,3,6-tetrahydropyridin-4-yl)-N,5-dimethylbenzamide]
EC50 [1]: 0.9 nM
DC50 (STAT6): 0.1 nM

CNc1cc(=O)n(-c2ccnc3c2cc([C@H](C)N2CC=C(c4c(C)cc(C(=O)N5CCC(CN6CCN(c7ccc8c(c7)C(C)(C)C(=O)N8[C@@H]7CCC(=O)NC7=O)CC6)CC5)cc4F)CC2)n3C)cc1F (single isomer, unassigned) [Example 3u286]
EC50 [1]: 25.2 nM
DC50 (STAT6): 12.5 nM

CNc1ccn(-c2ccnc3c2cc([C@H](C)N2CC=C(c4c(C)cc(C(=O)N5CCC(CN6CCN(Cc7cc8c(cc7F)n([C@H]7CCC(=O)NC7=O)c(=O)n8C)CC6)CC5)cc4F)CC2)n3C)c(=O)c1 (single isomer, unassigned) [Example 3u11]
EC50 [1]: 0.2 nM
DC50 (STAT6): 0.5 nM

CNc1ccn(-c2ccnc3c2cc([C@H](C)N2CC=C(c4c(C)cc(C(=O)N(C)C5CCN(C6CCN(Cc7ccc8c(c7)n(C)c(=O)n8C7CCC(=O)NC7=O)CC6)CC5)cc4F)CC2)n3C)c(=O)c1 (stereo partly drawn) [Example 3u35, N-(1′-((1-(2,6-dioxopiperidin-3-yl)-3-methyl-2-oxo-2,3-dihydro-1H-benzo[d]imidazol-5-yl)methyl)-[1,4′-bipiperidin]-4-yl)-3-fluoro-N,5-dimethyl-4-(1-((S)-1-(1-methyl-4-(4-(methylamino)-2-oxopyridin-1 (2H)-yl)-1H-pyrrolo[2,3-b]pyridin-2-yl)ethyl)-1,2,3,6-tetrahydropyridin-4-yl)benzamide]
EC50 [1]: 5.5 nM
DC50 (STAT6): 9.6 nM

CNc1cc(=O)n(-c2ccnc3c2cc(CN2CCC(c4c(F)cc(C(=O)N(C)c5ccc(C6CCN(Cc7ccc8c(c7)n(C)c(=O)n8C7CCC(=O)NC7=O)CC6)cc5)cc4F)CC2)n3C)cc1F (centres unmarked) [Example 3u245, N-(4-(1-((1-(2,6-dioxopiperidin-3-yl)-3-methyl-2-oxo-2,3-dihydro-1H-benzo[d]imidazol-5-yl)methyl)piperidin-4-yl)phenyl)-3,5-difluoro-4-(1-((4-(5-fluoro-4-(methylamino)-2-oxopyridin-1 (2H)-yl)-1-methyl-1H-pyrrolo[2,3-b]pyridin-2-yl)methyl)piperidin-4-yl)-N-methylbenzamide]
EC50 [1]: 0.1 nM
DC50 (STAT6): 0.1 nM

CNc1ccn(-c2ccnc3c2cc(CN2CCC(c4c(F)cc(C(=O)N5CCC(CN6CCN(Cc7ccc8c(c7)n(C7CC7)c(=O)n8[C@H]7CCC(=O)NC7=O)C[C@@H]6C)CC5)cc4F)CC2)n3C)c(=O)c1 (single isomer, unassigned) [Example 3u217]
EC50 [1]: 0.6 nM
DC50 (STAT6): 1.8 nM

CNc1ccn(-c2ccnc3c2cc([C@H](C)N2CC=C(c4c(C)cc(C(=O)N5CCC(CN6CCN(Cc7cc8c(cc7F)n([C@@H]7CCC(=O)NC7=O)c(=O)n8C)CC6)CC5)cc4F)CC2)n3C)c(=O)c1 (single isomer, unassigned) [Example 3u12]
EC50 [1]: 0.5 nM
DC50 (STAT6): 0.6 nM

CNc1cc(=O)n(-c2ccnc3c2cc([C@H](C)N2CC=C(c4c(C)cc(C(=O)N5CCC(CN6CCN(c7ccc8c(c7)n(C)c(=O)n8[C@H]7CCC(=O)NC7=O)CC6)CC5)cc4F)CC2)n3C)cc1F (single isomer, unassigned) [Example 3u296]
EC50 [1]: 5.8 nM
DC50 (STAT6): 2.7 nM

CNc1ccn(-c2ccnc3c2cc([C@H](C)N2CCC(c4c(F)cc(C(=O)N5CCC(CN6CCN(Cc7ccc8c(c7)C(C)(C)C(=O)N8C7CCC(=O)NC7=O)C[C@@H]6C)CC5)cc4F)CC2)n3C)c(=O)c1 (stereo partly drawn) [Example 3u80, 3-(5-(((S)-4-((1-(3,5-difluoro-4-(1-((S)-1-(1-methyl-4-(4-(methylamino)-2-oxopyridin-1 (2H)-yl)-1H-pyrrolo[2,3-b]pyridin-2-yl)ethyl)piperidin-4-yl)benzoyl)piperidin-4-yl)methyl)-3-methyl-piperazin-1-yl)methyl)-3,3-dimethyl-2-oxoindolin-1-yl)piperidine-2,6-dione]
EC50 [1]: 5 nM
DC50 (STAT6): 0.8 nM

CNc1ccn(-c2ccnc3c2cc([C@H](C)N2CC=C(c4c(C)cc(C(=O)N5CCC(CN6CCN(Cc7cc8c(cc7F)N(C7CCC(=O)NC7=O)C(=O)C87CC7)C[C@@H]6C)CC5)cc4F)CC2)n3C)c(=O)c1 (stereo partly drawn) [Example 3u193, 3-(6′-fluoro-5′-(((S)-4-((1-(3-fluoro-5-methyl-4-(1-((S)-1-(1-methyl-4-(4-(methyl-amino)-2-oxopyridin-1 (2H)-yl)-1H-pyrrolo[2,3-b]pyridin-2-yl)ethyl)-1,2,3,6-tetrahydropyridin-4-yl)benzoyl)piperidin-4-yl)methyl)-3-methylpiperazin-1-yl)methyl)-2′-oxospiro[cyclopropane-1,3′-indolin]-1′-yl)piperidine-2,6-dione]
EC50 [1]: 2.4 nM
DC50 (STAT6): 1.9 nM

CNc1ccn(-c2ccnc3c2cc(CN2CCC(c4c(C)cc(C(=O)N5CCC(CN6CCN(Cc7ccc8c(c7)n(C)c(=O)n8[C@H]7CCC(=O)NC7=O)CC6)CC5)cc4F)CC2)n3C)c(=O)c1 (single isomer, unassigned) [Example 3u160]
EC50 [1]: 27.5 nM
DC50 (STAT6): 10.9 nM

CNc1cc(=O)n(-c2ccnc3c2cc(CN2CCC(c4c(F)cc(C(=O)N5CCC(CN6CCN(Cc7ccc8c(c7)C(C)(C)C(=O)N8[C@@H]7CCC(=O)NC7=O)C[C@@H]6C)CC5)cc4F)CC2)n3C)cc1F (single isomer, unassigned) [Example 3u50]
EC50 [1]: 30.2 nM
DC50 (STAT6): 0.9 nM

CNc1cc(=O)n(-c2ccnc3c2cc([C@H](C)N2CC=C(c4c(C)cc(C(=O)N5CCC(CN6CCN(Cc7ccc8c(c7)C7(CC7)C(=O)N8[C@H]7CCC(=O)NC7=O)C[C@@H]6C)CC5)cc4F)CC2)n3C)cc1F (single isomer, unassigned) [Example 3u99]
EC50 [1]: 1.7 nM
DC50 (STAT6): 1.1 nM

CNc1cc(=O)n(-c2ccnc3c2cc(CN2CC=C(c4c(F)cc(C(=O)N5CCC(CN6CCN(Cc7ccc8c(c7)n(C)c(=O)n8[C@H]7CCC(=O)NC7=O)C[C@@H]6C)CC5)cc4F)CC2)n3C)cc1F (single isomer, unassigned) [Example 3u56]
EC50 [1]: 3.5 nM
DC50 (STAT6): 8.7 nM
